Assay results as given in the NIST ThermoML archive (doi:10.1016/j.jct.2008.05.014).
± gives the expanded uncertainty stated by the source.

Assay: xn = mol fraction of the nth substance listed
Conditions: Liquid; for speed of sound: Pulse-echo method

CCCCCCCCCCCC [dodecane] + CCCCCCC
Conditions	mass density [kg/m3]	speed of sound [m/s]
298.15 K, 91180 kPa, x2 = 0.5003	–	1642.1 ± 2.6
298.15 K, 101320 kPa, x2 = 0.1014	–	1704.4 ± 2.6
298.15 K, 101320 kPa, x2 = 0.4999	–	1676 ± 2.6
298.15 K, 101320 kPa, x2 = 0.5003	–	1676.4 ± 2.6
298.16 K, 101 kPa, x2 = 0	–	1278.9 ± 1.6
298.16 K, 101 kPa, x2 = 0.3002	–	1246.5 ± 1.6
298.16 K, 101 kPa, x2 = 0.3996	726.184 ± 0.66	–
298.16 K, 101 kPa, x2 = 0.6	713.735 ± 0.67	1205.1 ± 1.6
298.16 K, 101 kPa, x2 = 0.8995	–	1151.9 ± 1.6
298.16 K, 15200 kPa, x2 = 0	–	1365.9 ± 2.4
298.16 K, 15200 kPa, x2 = 0.3007	–	1336 ± 2.4
298.16 K, 15200 kPa, x2 = 0.4999	–	1314.6 ± 2.4
298.16 K, 15200 kPa, x2 = 0.7007	–	1286.6 ± 2.4
298.16 K, 30390 kPa, x2 = 0	–	1440 ± 2.4
298.16 K, 30390 kPa, x2 = 0.3007	–	1413 ± 2.4
298.16 K, 30390 kPa, x2 = 0.7007	–	1368.2 ± 2.4
298.16 K, 45580 kPa, x2 = 0	–	1507 ± 2.4
298.16 K, 45590 kPa, x2 = 0.3007	–	1481.9 ± 2.4
298.16 K, 60790 kPa, x2 = 0	–	1568 ± 2.5
298.16 K, 75990 kPa, x2 = 0	–	1625.2 ± 2.5
298.16 K, 75990 kPa, x2 = 0.3007	–	1602.7 ± 2.5
298.16 K, 91180 kPa, x2 = 0	–	1677.7 ± 2.5
298.16 K, 91180 kPa, x2 = 0.3007	–	1656.7 ± 2.5
298.16 K, 91180 kPa, x2 = 0.7007	–	1623.2 ± 2.6
298.16 K, 101320 kPa, x2 = 0	–	1711.1 ± 2.6
298.16 K, 101320 kPa, x2 = 0.3007	–	1690.7 ± 2.6
298.16 K, 101320 kPa, x2 = 0.7007	–	1658.1 ± 2.6
298.17 K, 101 kPa, x2 = 0.7002	–	1188.8 ± 1.6
298.17 K, 101 kPa, x2 = 0.8	–	1171.2 ± 1.6
298.17 K, 15200 kPa, x2 = 0.1014	–	1356.6 ± 2.4
298.17 K, 15200 kPa, x2 = 0.8496	–	1264.5 ± 2.4
298.17 K, 30390 kPa, x2 = 0.8496	–	1348.6 ± 2.4
298.17 K, 45590 kPa, x2 = 0.8496	–	1422.9 ± 2.4
298.17 K, 60790 kPa, x2 = 0.8496	–	1489.9 ± 2.5
298.17 K, 75990 kPa, x2 = 0.8496	–	1551 ± 2.5
298.17 K, 91180 kPa, x2 = 0.8496	–	1608.3 ± 2.6
298.17 K, 101320 kPa, x2 = 0.8496	–	1644.1 ± 2.6
298.18 K, 101 kPa, x2 = 0.1007	–	1268.9 ± 1.6
298.18 K, 101 kPa, x2 = 0.3996	–	1233.8 ± 1.6
298.18 K, 101 kPa, x2 = 0.5002	–	1219.9 ± 1.6
298.18 K, 30390 kPa, x2 = 0.1014	–	1431.7 ± 2.4
298.19 K, 101 kPa, x2 = 0.2001	–	1258.1 ± 1.6
303.12 K, 15200 kPa, x2 = 0.9391	–	1228.3 ± 2.4
303.12 K, 30390 kPa, x2 = 0.9391	–	1315.5 ± 2.4
303.12 K, 30390 kPa, x2 = 0.97	–	1312 ± 2.4
303.12 K, 45590 kPa, x2 = 0.9391	–	1392 ± 2.4
303.12 K, 45590 kPa, x2 = 0.97	–	1388.9 ± 2.4
303.12 K, 60790 kPa, x2 = 0.9391	–	1461.1 ± 2.5
303.12 K, 60790 kPa, x2 = 0.97	–	1458.4 ± 2.5
303.12 K, 75990 kPa, x2 = 0.9391	–	1523.8 ± 2.5
303.12 K, 75990 kPa, x2 = 0.97	–	1521.5 ± 2.5
303.12 K, 91180 kPa, x2 = 0.9391	–	1582 ± 2.6
303.12 K, 91180 kPa, x2 = 0.97	–	1579.9 ± 2.6
303.12 K, 101320 kPa, x2 = 0.9391	–	1618.9 ± 2.6
303.12 K, 101320 kPa, x2 = 0.97	–	1616.9 ± 2.6
303.13 K, 15200 kPa, x2 = 0.97	–	1224 ± 2.4
303.13 K, 101320 kPa, x2 = 0.1014	–	1691.2 ± 2.6
303.13 K, 101320 kPa, x2 = 0.5003	–	1663 ± 2.6
303.14 K, 101 kPa, x2 = 0.6	–	1184.8 ± 1.6
303.14 K, 101 kPa, x2 = 0.8995	–	1130.7 ± 1.6
303.14 K, 15200 kPa, x2 = 0.1014	–	1339.1 ± 2.4
303.14 K, 15200 kPa, x2 = 0.4999	–	1296.5 ± 2.4
303.14 K, 30390 kPa, x2 = 0	–	1423.8 ± 2.4
303.14 K, 30390 kPa, x2 = 0.1014	–	1415.2 ± 2.4
303.14 K, 30390 kPa, x2 = 0.4999	–	1376.6 ± 2.4
303.14 K, 30390 kPa, x2 = 0.5003	–	1376.5 ± 2.4
303.14 K, 45590 kPa, x2 = 0	–	1491.4 ± 2.4
303.14 K, 45590 kPa, x2 = 0.1014	–	1483.5 ± 2.4
303.14 K, 45590 kPa, x2 = 0.3007	–	1466.1 ± 2.4
303.14 K, 45590 kPa, x2 = 0.4999	–	1448 ± 2.4
303.14 K, 45590 kPa, x2 = 0.5003	–	1448.1 ± 2.4
303.14 K, 60790 kPa, x2 = 0	–	1553.1 ± 2.5
303.14 K, 60790 kPa, x2 = 0.1014	–	1545.7 ± 2.5
303.14 K, 60790 kPa, x2 = 0.4999	–	1512.9 ± 2.5
303.14 K, 60790 kPa, x2 = 0.5003	–	1513 ± 2.5
303.14 K, 60790 kPa, x2 = 0.7007	–	1491.3 ± 2.5
303.14 K, 75990 kPa, x2 = 0	–	1610.9 ± 2.5
303.14 K, 75990 kPa, x2 = 0.1014	–	1603.8 ± 2.5
303.14 K, 75990 kPa, x2 = 0.4999	–	1572.4 ± 2.5
303.14 K, 75990 kPa, x2 = 0.5003	–	1572.6 ± 2.5
303.14 K, 75990 kPa, x2 = 0.7007	–	1552 ± 2.5
303.14 K, 91180 kPa, x2 = 0	–	1664.1 ± 2.5
303.14 K, 91180 kPa, x2 = 0.1014	–	1657.4 ± 2.5
303.14 K, 91180 kPa, x2 = 0.3007	–	1642.8 ± 2.5
303.14 K, 91180 kPa, x2 = 0.4999	–	1627.9 ± 2.6
303.14 K, 91180 kPa, x2 = 0.5003	–	1628.3 ± 2.6
303.14 K, 91180 kPa, x2 = 0.7007	–	1609.1 ± 2.6
303.14 K, 101320 kPa, x2 = 0	–	1697.4 ± 2.6
303.14 K, 101320 kPa, x2 = 0.3007	–	1677 ± 2.6
303.14 K, 101320 kPa, x2 = 0.4999	–	1662.6 ± 2.6
303.14 K, 101320 kPa, x2 = 0.7007	–	1644.6 ± 2.6
303.15 K, 101 kPa, x2 = 0	741.636 ± 0.64	1259.3 ± 1.6
303.15 K, 101 kPa, x2 = 0.0991	737.456 ± 0.64	–
303.15 K, 101 kPa, x2 = 0.2008	732.789 ± 0.65	–
303.15 K, 101 kPa, x2 = 0.2998	727.833 ± 0.66	–
303.15 K, 101 kPa, x2 = 0.3002	–	1226.7 ± 1.6
303.15 K, 101 kPa, x2 = 0.7002	–	1168.2 ± 1.6
303.15 K, 101 kPa, x2 = 0.7005	702.52 ± 0.69	–
303.15 K, 101 kPa, x2 = 0.7995	694.549 ± 0.7	–
303.15 K, 101 kPa, x2 = 0.8486	690.238 ± 0.7	–
303.15 K, 101 kPa, x2 = 0.8988	685.588 ± 0.71	–
303.15 K, 101 kPa, x2 = 0.9498	680.563 ± 0.72	–
303.15 K, 15200 kPa, x2 = 0	–	1348.5 ± 2.4
303.15 K, 15200 kPa, x2 = 0.3007	–	1317.9 ± 2.4
303.15 K, 15200 kPa, x2 = 0.5003	–	1296.5 ± 2.4
303.15 K, 15200 kPa, x2 = 0.7007	–	1268.1 ± 2.4
303.15 K, 30390 kPa, x2 = 0.3007	–	1396 ± 2.4
303.15 K, 30390 kPa, x2 = 0.7007	–	1351.3 ± 2.4
303.15 K, 30390 kPa, x2 = 0.8496	–	1331.4 ± 2.4
303.15 K, 45590 kPa, x2 = 0.7007	–	1425 ± 2.4
303.15 K, 60790 kPa, x2 = 0.3007	–	1529.4 ± 2.5
303.15 K, 75990 kPa, x2 = 0.3007	–	1588.1 ± 2.5
303.15 K, 75990 kPa, x2 = 0.8496	–	1536.5 ± 2.5
303.15 K, 91180 kPa, x2 = 0.8496	–	1594.2 ± 2.6
303.15 K, 101320 kPa, x2 = 0.8496	–	1630.5 ± 2.6
303.16 K, 101 kPa, x2 = 0.1007	–	1249.4 ± 1.6
303.16 K, 101 kPa, x2 = 0.3996	722.389 ± 0.66	1213.9 ± 1.6
303.16 K, 101 kPa, x2 = 0.5	716.383 ± 0.67	–
303.16 K, 101 kPa, x2 = 0.5002	–	1199.8 ± 1.6
303.16 K, 101 kPa, x2 = 0.6	709.824 ± 0.68	–
303.16 K, 101 kPa, x2 = 0.8	–	1150.3 ± 1.6
303.16 K, 15200 kPa, x2 = 0.8496	–	1245.8 ± 2.4
303.16 K, 45590 kPa, x2 = 0.8496	–	1406.8 ± 2.4
303.16 K, 60790 kPa, x2 = 0.8496	–	1474.8 ± 2.5
